Assay results published in BindingDB's records for doi:10.1021/jm990343b (Purdue University, 1999).
Where “and” joins values, the source holds several entries; their conditions need not be identical. Equal values may be shown once.

These compounds were tested against T1, Gag-Pol polyprotein [588-1027]/[588-1147] (Human immunodeficiency virus 1, UniProt P04585) (assay: HIV-1 RT Assay). Settings: pH 7.9.
T1 construct: 588-1027; 588-1147

| Compound | IC50 |
| --- | --- |
| CCC(CCCC=C(c1cc(Cl)c(OC)c(CO)c1)c1cc(Cl)c(OC)c(CO)c1)C1OCCO1 (stereo not drawn) [(3-chloro-5-{1-[3-chloro-5-(hydroxymethyl)-4-methoxyphenyl]-6-(1,3-dioxolan-2-yl)oct-1-en-1-yl}-2-methoxyphenyl)methanol] | 3.2 µM and 31.6 µM |
| COC(=O)CC=C(c1cc(Cl)c(OC)c(C(=O)OC)c1)c1cc(Cl)c(OC)c(C(=O)OC)c1 [methyl 3-chloro-5-{1-[3-chloro-4-methoxy-5-(methoxycarbonyl)phenyl]-4-methoxy-4-oxobut-1-en-1-yl}-2-methoxybenzoate] | > 100 µM |
| COC(=O)CCC=C(c1cc(Cl)c(OC)c(C(=O)OC)c1)c1cc(Cl)c(OC)c(C(=O)OC)c1 [methyl 3-chloro-5-{1-[3-chloro-4-methoxy-5-(methoxycarbonyl)phenyl]-5-methoxy-5-oxopent-1-en-1-yl}-2-methoxybenzoate] | > 100 µM |
